# Reference: patent publication US4248889A, “3,5-Dihydroxypentanoic ester derivatives having antihyperlipaemic activity” (Sankyo Company Limited, priority 1978, dated 1981)
# Target: cholesterol biosynthesis (crude enzyme extracted from rat liver)
# Experiment: inhibition of cholesterol biosynthesis by crude enzyme extracted from rat liver (radioactive acetic acid, 37° C., 60 minutes; cholesterol precipitated with digitonin, radioactivity measured)
# Assay type: biochemical
# Procedure: Crude enzyme extracted from rat liver was reacted with radioactive acetic acid at 37° C. for 60 minutes. The radioactive cholesterol thus biosynthesized was saponified and precipitated with digitonin, and the radioactivity was measured to determine the amount of cholesterol produced. The reaction was repeated, by adding one of the compounds of the invention listed in the following Table at the beginning of the reaction, and the amount of cholesterol biosynthesized was again determined, to give a quantitative measurement of the inhibitory effect of the compounds of the invention. The concentrations (μg/ml) of the compounds of the invention and of a known compound (clofibrate) which gave approximately 50% inhibition of cholesterol biosynthesis re reported in the following Table as I50 values [see Bricker et al, The Journal of Biological Chemistry, 247, 4914 (1972)]. The compounds of the invention are identified in the following Table by the numbers heretofore assigned to them.
row,SMILES,I50 (concentration which gave approximately 50% inhibition of cholesterol biosynthesis) [µg/mL]
1,"CCOC(=O)C(C)(C)Oc1ccc(Cl)cc1 [Clofibrate, clofibrate, reference compound]",250 to 300
2,"CCOC(=O)CC(O)CC(O)CCc1ccc(Cl)cc1 (centres unmarked) [Compound 2, Ethyl 7-p-chlorophenyl-3,5-dihydroxyheptanoate]",17.2
3,"CCOC(=O)CC(O)CC(O)CCc1c(C)ccc2c1CCCC2 (centres unmarked) [Compound 5, Ethyl 3,5-dihydroxy-7-(2-methyl-5,6,7,8-tetrahydro-1-naphthyl)heptanoate]",1.56
4,"CCOC(=O)CC(O)CC(O)C=Cc1ccccc1 (centres unmarked) [Compound 8, Ethyl 3,5-dihydroxy-7-phenylhept-6-enoate]",9.0
5,"CCOC(=O)CC(O)CC(O)C(C)Oc1ccccc1 (centres unmarked) [Compound 9, Ethyl 3,5-dihydroxy-6-phenoxyheptanoate]",23 to 50
6,"CCOC(=O)CC(O)CC(O)COc1ccccc1Cl (centres unmarked) [Compound 10, Ethyl 6-(o-chlorophenoxy)-3,5-dihydroxyhexanoate]",5 to 15.2

# More lines, now with the values ahead:
row,I50 (concentration which gave approximately 50% inhibition of cholesterol biosynthesis) [µg/mL],SMILES
1,3.7,"CCOC(=O)CC(O)CC(O)CCc1ccccc1 (centres unmarked) [Compound 1, Ethyl 3,5-dihydroxy-7-phenylheptanoate]"
2,5.0,"CCOC(=O)CC(O)CC(O)CCc1cccc2ccccc12 (centres unmarked) [Compound 3, Ethyl 3,5-dihydroxy-7-(1-naphthyl)heptanoate]"
3,0.24,"CCOC(=O)CC(O)CC(O)CCc1c(C)ccc2ccccc12 (centres unmarked) [Compound 4, Ethyl 3,5-dihydroxy-7-(2-methyl-1-naphthyl)heptanoate]"
4,3.4,"CCOC(=O)CC(O)CC(O)CCCc1cccc2ccccc12 (centres unmarked) [Compound 6, Ethyl 3,5-dihydroxy-8-(1-naphthyl)octanoate]"
5,1.2,"CCOC(=O)CC(O)CC(O)CCCc1c(C)ccc2ccccc12 (centres unmarked) [Compound 7, Ethyl 3,5-dihydroxy-8-(2-methyl-1-naphthyl)octanoate]"
